Converted amounts (≈) assume the structure as drawn. Bounds are passed on as bounds.

Sequence of Beta-lactamase (P00811 whole entry): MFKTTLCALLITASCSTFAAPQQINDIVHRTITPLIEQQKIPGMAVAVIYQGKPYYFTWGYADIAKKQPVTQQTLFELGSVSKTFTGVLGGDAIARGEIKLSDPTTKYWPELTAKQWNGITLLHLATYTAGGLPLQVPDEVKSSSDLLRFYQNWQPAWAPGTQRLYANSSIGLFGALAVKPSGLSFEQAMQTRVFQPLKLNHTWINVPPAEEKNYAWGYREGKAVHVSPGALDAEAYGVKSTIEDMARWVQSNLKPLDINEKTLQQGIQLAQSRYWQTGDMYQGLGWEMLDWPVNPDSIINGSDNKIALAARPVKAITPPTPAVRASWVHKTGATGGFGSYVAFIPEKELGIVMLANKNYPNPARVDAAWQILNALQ

The target in the first assay is Beta-lactamase TEM (Escherichia coli, UniProt P62593). The assay can be described thus: Inhibitory activity against TEM-1 (class A) beta-lactamase.
Sequence of Beta-lactamase TEM (P62593 whole entry): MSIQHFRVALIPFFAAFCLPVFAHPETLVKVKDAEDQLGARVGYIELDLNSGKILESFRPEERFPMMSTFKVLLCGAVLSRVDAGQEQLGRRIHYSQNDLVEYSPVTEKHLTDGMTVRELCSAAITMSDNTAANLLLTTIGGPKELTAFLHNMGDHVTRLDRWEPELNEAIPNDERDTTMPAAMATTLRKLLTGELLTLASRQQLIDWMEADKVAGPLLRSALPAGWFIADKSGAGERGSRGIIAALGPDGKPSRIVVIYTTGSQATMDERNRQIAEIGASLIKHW
What is called IC50 is the midpoint of a concentration-inhibition curve. As to `CO/N=C/C1(C)[C@H](C(=O)O)N2C(=O)[C@@H](CO)[C@H]2S1(=O)=O` (single isomer, unassigned), the IC50 was 64 nM.

`C[C@]1(Cn2ccnn2)[C@H](C(=O)[O-])N2C(=O)[C@@H](CO)[C@H]2S1(=O)=O.[Na+]`: the midpoint of inhibition, the IC50, lay at 6 nM.

As for `CC1(C=CC#N)[C@H](C(=O)O)N2C(=O)C[C@H]2S1(=O)=O` (single isomer, unassigned) [Ro-481220], the half-maximal inhibitory concentration (IC50) is 42 nM.

A further assay relates to Serratia marcescens. The assay can be described thus: In vitro inhibitory activity against Serratia marcescens. In kind it is functional.
What is called MIC is the smallest concentration in the dilution series that meets the test's criterion for growth inhibition. Read a high MIC as weaker potency. Turning to `C[C@]1(/C=C/C#N)[C@H](C(=O)[O-])N2C(=O)[C@@H](CO)[C@H]2S1(=O)=O.[Na+]`, the MIC was 4 µg/mL.

On to `CCN1CCN(C(=O)N[C@@H](C(=O)N[C@@H]2C(=O)N3[C@@H]2SC(C)(C)[C@@H]3C(=O)O)c2ccccc2)C(=O)C1=O` [PIPERACILLIN], for which the MIC was 32 µg/mL (≈ 61.8 µM).

Take `C[C@]1(Cn2ccnn2)[C@H](C(=O)[O-])N2C(=O)C[C@H]2S1(=O)=O.[Na+]` [TAZOBACTAM SODIUM]: the MIC turned out to be 32 µg/mL.

For `CO/N=C/C1(C)[C@H](C(=O)O)N2C(=O)[C@@H](CO)[C@H]2S1(=O)=O` (single isomer, unassigned), inhibition of growth (MIC) required 16 µg/mL (≈ 52.2 µM).

Compound `C[C@]1(/C=C\C#N)[C@H](C(=O)[O-])N2C(=O)[C@@H](CO)[C@H]2S1(=O)=O.[Na+]` showed an MIC of 8 µg/mL.

Consider `C[C@]1(Cn2ccnn2)[C@H](C(=O)[O-])N2C(=O)[C@@H](CO)[C@H]2S1(=O)=O.[Na+]`, for which the MIC was 16 µg/mL.

Regarding `CC1(C=CC#N)[C@H](C(=O)O)N2C(=O)C[C@H]2S1(=O)=O` (single isomer, unassigned) [Ro-481220], 4 µg/mL (≈ 14.8 µM) was the least that counted as inhibitory (MIC).

The next assay deals with Serratia marcescens. The assay can be described thus: In vivo inhibitory activity against Serratia marcescens in mice. The format is functional.
The ED50 is the dose that gives a 50% effect, or the effect in half of the subjects. Low readings indicate an effect at a small dose, high ones a need for a large dose. `CCN1CCN(C(=O)N[C@@H](C(=O)N[C@@H]2C(=O)N3[C@@H]2SC(C)(C)[C@@H]3C(=O)O)c2ccccc2)C(=O)C1=O` [PIPERACILLIN] gave a median effective dose (ED50) of 128 mg/kg.

For `C[C@]1(Cn2ccnn2)[C@H](C(=O)[O-])N2C(=O)C[C@H]2S1(=O)=O.[Na+]` [TAZOBACTAM SODIUM], the ED50 amounted to 144 mg/kg.

Take `C[C@]1(/C=C\C#N)[C@H](C(=O)[O-])N2C(=O)[C@@H](CO)[C@H]2S1(=O)=O.[Na+]`: the ED50 worked out at 16 mg/kg.

Consider `C[C@]1(Cn2ccnn2)[C@H](C(=O)[O-])N2C(=O)[C@@H](CO)[C@H]2S1(=O)=O.[Na+]`, for which the ED50 is 125 mg/kg.

The compound `CC1(C=CC#N)[C@H](C(=O)O)N2C(=O)C[C@H]2S1(=O)=O` (single isomer, unassigned) [Ro-481220] gave an ED50 of 82 mg/kg.

The next assay concerns the target Beta-lactamase (Escherichia coli K-12, UniProt P00811). The assay can be described thus: Inhibitory activity against AmpC (class C) beta-lactamase.
In turn, `C[C@]1(/C=C/C#N)[C@H](C(=O)[O-])N2C(=O)[C@@H](CO)[C@H]2S1(=O)=O.[Na+]` yielded an IC50 of 280 nM.

`CO/N=C/C1(C)[C@H](C(=O)O)N2C(=O)[C@@H](CO)[C@H]2S1(=O)=O` (single isomer, unassigned) displayed an IC50 of 280 nM.

`C[C@]1(/C=C\C#N)[C@H](C(=O)[O-])N2C(=O)[C@@H](CO)[C@H]2S1(=O)=O.[Na+]`: inhibition was half-maximal at 270 nM (IC50).

The compound `CC1(C=CC#N)[C@H](C(=O)O)N2C(=O)C[C@H]2S1(=O)=O` (single isomer, unassigned) [Ro-481220] registered an IC50 of 1130 nM.

A further assay deals with Escherichia coli. The assay can be described thus: In vitro inhibitory activity against Escherichia coli. In kind it is functional.
Compound `C[C@]1(/C=C/C#N)[C@H](C(=O)[O-])N2C(=O)[C@@H](CO)[C@H]2S1(=O)=O.[Na+]` gave a minimum inhibitory concentration (MIC) of 16 µg/mL.

Consider `CCN1CCN(C(=O)N[C@@H](C(=O)N[C@@H]2C(=O)N3[C@@H]2SC(C)(C)[C@@H]3C(=O)O)c2ccccc2)C(=O)C1=O` [PIPERACILLIN], for which the minimal inhibitory concentration (MIC) is more than 64 µg/mL.

In turn, `C[C@]1(Cn2ccnn2)[C@H](C(=O)[O-])N2C(=O)C[C@H]2S1(=O)=O.[Na+]` [TAZOBACTAM SODIUM] gave an MIC of 2 µg/mL.

Compound `CO/N=C/C1(C)[C@H](C(=O)O)N2C(=O)[C@@H](CO)[C@H]2S1(=O)=O` (single isomer, unassigned) had an MIC of 8 µg/mL (≈ 26.1 µM).

The compound `C[C@]1(/C=C\C#N)[C@H](C(=O)[O-])N2C(=O)[C@@H](CO)[C@H]2S1(=O)=O.[Na+]` registered a minimum inhibitory concentration (MIC) of 4 µg/mL.

The compound `C[C@]1(Cn2ccnn2)[C@H](C(=O)[O-])N2C(=O)[C@@H](CO)[C@H]2S1(=O)=O.[Na+]` gave an MIC of 2 µg/mL.

`CC1(C=CC#N)[C@H](C(=O)O)N2C(=O)C[C@H]2S1(=O)=O` (single isomer, unassigned) [Ro-481220]: the MIC was 4 µg/mL (≈ 14.8 µM).

Another assay relates to Escherichia coli. The assay can be described thus: In vivo inhibitory activity against Escherichia coli in mice. In kind it is functional.
`CCN1CCN(C(=O)N[C@@H](C(=O)N[C@@H]2C(=O)N3[C@@H]2SC(C)(C)[C@@H]3C(=O)O)c2ccccc2)C(=O)C1=O` [PIPERACILLIN] gave an ED50 of 256 mg/kg.

The compound `C[C@]1(Cn2ccnn2)[C@H](C(=O)[O-])N2C(=O)C[C@H]2S1(=O)=O.[Na+]` [TAZOBACTAM SODIUM] came in with an ED50 of 7.7 mg/kg.

In turn, `C[C@]1(/C=C\C#N)[C@H](C(=O)[O-])N2C(=O)[C@@H](CO)[C@H]2S1(=O)=O.[Na+]` registered a 50% effective dose (ED50) of 4 mg/kg.

As to `C[C@]1(Cn2ccnn2)[C@H](C(=O)[O-])N2C(=O)[C@@H](CO)[C@H]2S1(=O)=O.[Na+]`, the median effective dose (ED50) worked out at 3.6 mg/kg.

In turn, `CC1(C=CC#N)[C@H](C(=O)O)N2C(=O)C[C@H]2S1(=O)=O` (single isomer, unassigned) [Ro-481220] displayed an ED50 of 15 mg/kg.
